Experimental data as given in US9493419B2, “Quinoline derivatives as anti-cancer agents” (The Hong Kong Polytechnic University, priority 2007, dated 2016).
Converted amounts (≈) assume the structure as drawn. One block for each molecule: values may come before it.

Legend:
[1] = system: Lung carcinoma cell line (A549); assay: MTS activity assay, A549; format: cell-based; conditions: 48 hours, relative to control; for viability at 50 µg/mL: Homo sapiens, A549, 50 μg/mL, read-out: Relative MTS Activity at 50 μg/mL Concentration, A549
Excerpt: (§1) All the assays were done in triplicates.

Hep3B = assay: MTS activity assay, Hep3B; format: cell-based, human; conditions: for viability at 50 µg/mL: Homo sapiens, Hep3B, read-out: Relative MTS Activity at 50 μg/mL Concentration, Hep3B
Excerpt: as §1

[2] = Histological examination of organs of treated mice; format: in vivo; conditions: mice after sacrifice; 10 mg/kg i.p. daily for 19 days
Protocol: (§2) Each group of three mice received intra-peritoneal (i.p.) injection daily with 10 mg/kg of optically pure isomers with 6% polyethylene glycol (PEG Mn 8000) for 19 days. The control group of two mice was injected daily with 6% PEG only. Tumor dimensions were measured regularly with calipers, and tumor volumes were estimated using two-dimensional measurements of length and width and calculated with the formula [l×(w)^2]×0.52 (l is length and w is width) as previously described.

KYSE150 xenograft tumors = assay: Subcutaneous KYSE150 xenograft tumors in nude mice; format: in vivo; conditions: 10 mg/kg/day i.p. for 19 days, compared with negative control (6% PEG), FIG. 2
Protocol: Optically pure compound (−)-2b (ee up 99%) was tested for their anti-cancer effects against the subcutaneous xenograft tumors of human esophageal cancer derived from the cell line KYSE150, which was purchased from DSMZ (Braunschweig, Germany) and was cultured in a known way as previously described (for details see reference number 17).
as §2

[3] = system: five carcinoma cell lines (Hep3B, A549, HKESC-1, HKESC-4 and KYSE150); conditions: against the cancer cell lines, FIG. 1
Excerpt: (§3) Lung carcinoma cell line (A549) and hepatocellular carcinoma (HCC) cell line (Hep3B) were obtained from American Type of Culture Collection (ATCC). Esophageal squamous cell carcinoma cell line KYSE150 was purchased from DSMZ (Braunschweig, Germany) [13]. […] Hep3B HCC and A549 lung carcinoma cell lines were maintained in DMEM and F12-K medium respectively with 10% of heat inactivated fetal bovine serum (Hyclone) together with antibiotics involving penicillin and streptomycin. All the ESCC cell lines (KYSE150, HKESC-1 and HKESC-4) were maintained in MEM supplemented with 10% of heat inactivated fetal bovine serum together with antibiotics involving penicillin and streptomycin. Cells were allowed to grow in a humidified cell culture incubator keeping at 5% carbon dioxide.
(§4) Briefly, 1×10^4 carcinoma cells were seeded at day 0. After 24 hours, medium was changed and various compounds were added at different concentrations. Cisplatin (CDDP), a commonly used anti-cancer agent, was also used as the positive control. After 48 hours of incubation, the medium was removed and MTS/PMS solution was added and they were incubated further for exactly 30 minutes. Afterwards, optical absorbance was determined at 490 nm according to the user manual (Promega). All the assays were done in triplicates.

[4] = system: Esophageal squamous cell carcinoma cell line KYSE150; assay: MTS activity assay, KYSE150; format: cell-based, human; conditions: for Relative MTS Activity at 50 μg/mL Concentration, KYSE150: 48 hours, relative to control
Excerpt: as §1

[5] = system: Esophageal squamous cell carcinoma cell line HKESC-1; assay: MTS activity assay, HKESC-1; format: cell-based; conditions: for Relative MTS Activity at 50 μg/mL Concentration, HKESC-1: 48 hours, relative to control
Excerpt: as §1

ESCC cell line HKESC-4 = assay: MTS activity assay, HKESC-4; format: cell-based; conditions: for Relative MTS Activity at 50 μg/mL Concentration, HKESC-4: 48 hours, relative to control
Excerpt: as §1

[6] = system: Human liver cancer cell line Hep3B; assay: Preliminary anti-cancer screening, One Step ATP lite assay; format: cell-based; design: key to Relative activity to untreated control: “+” (more cell death); “−” (no cytotoxicity); conditions: 48 hours; for Relative activity to untreated control: Hep3B, 50 ug/ml
Protocol: Human liver cancer cell line Hep3B was used for purpose of preliminary anti-cancer screening for the selected alkaloids. Cancer cells (1×10^4 per well) seeded in the 96 wells microtitre plates for 24 hours were prepared for the alkaloid screening. The selected compounds were prepared as a stock concentration of 50 mg/ml in dimethylsulfoxide (DMSO) and were added at a concentration of 50 μg/ml and incubated for a further of 48 hours. Untreated control received either total complete medium or 0.1% of DMSO. Cisplatin (CDDP, also at 50 μg/ml) was the positive reference which induced more than 95% in Hep3B. Afterwards, the evaluation of possible antiproliferative or cytotoxicity of those alkaloids was examined by the One Step ATP lite assay purchased from PerkinElmer according to the technical manual provided. […] The relative MTS activities were compared with the untreated control and illustrated using symbols “+” (more cell death) and “−” (no cytotoxicity).

[7] = system: five carcinoma cell lines (Hep3B, A549, HKESC-1, HKESC-4 and KYSE150); assay: cells; conditions: read-out: MTS50 (50% of MTS reduction ability by the chemical treated cell as compared with control), against the cancer cell lines, FIG. 1
Excerpt: as §3, §4

[8] = 50 μg/mL, 48 hours, relative to control

SMILES: CC1CCc2cccc(OCc3ccc(C(F)(F)F)cc3)c2N1 (stereo not drawn) [Compound 17b, 8-(4-(Trifluoromethyl)benzyloxy)-1,2,3,4-tetrahydro-2-methylquinoline]
viability at 50 µg/mL [1]: 98.3 ± 0.1% | viability at 50 µg/mL (Hep3B; [8]): 73.4 ± 2.4%

SMILES: Cc1ccc2cccc(OCc3cccc(-c4ccccc4)c3)c2n1 [Compound 14a, 8-(biphenyl-3-ylmethoxy)-2-methylquinoline]
viability at 50 µg/mL [1]: 24.4 ± 0.3% | viability at 50 µg/mL (Hep3B; [8]): 37 ± 21.4%

SMILES: CC1CCc2cccc(OCc3ccc(Cl)cc3)c2N1 (stereo not drawn) [Compound 18b, 8-(4-Chlorobenzyloxy)-1,2,3,4-tetrahydro-2-methylquinoline]
viability at 50 µg/mL [1]: 109 ± 3.9% | viability at 50 µg/mL (Hep3B; [8]): 60.9 ± 4.2%

SMILES: CC1CCc2c(Br)cc(Br)c(O)c2N1 (single isomer, unassigned; (-)) [(−)-2b, 5,7-Dibromo-1,2,3,4-tetrahydro-2-methylquinolin-8-ol]
Histological examination of liver, heart, lung and kidney sections [2]: no observable damage | volume growth of the KYSE150 xenograft tumors (KYSE150 xenograft tumors): effective in suppressing the volume growth | MTS50 (50% of MTS reduction ability by the chemical treated cell as compared with control) [3]: ~5 µg/mL

SMILES: COc1cccc(COc2cccc3ccc(C)nc23)c1 [Compound 12a, 8-(3-methoxybenzyloxy)-2-methylquinoline]
Relative MTS Activity at 50 μg/mL Concentration, KYSE150 [4]: 0.648 ± 0.013 | viability at 50 µg/mL (Hep3B; [8]): 20.9 ± 3% | Relative MTS Activity at 50 μg/mL Concentration, HKESC-1 [5]: 0.535 ± 0.032 | Relative MTS Activity at 50 μg/mL Concentration, HKESC-4 (ESCC cell line HKESC-4): 0.794 ± 0.005

SMILES: Cc1ccc2cccc(OCc3ccc(C(F)(F)F)cc3)c2n1 [Compound 17a, 8-(4-(trifluoromethyl)benzyloxy)-2-methylquinoline]
viability at 50 µg/mL [1]: 92 ± 4.2% | viability at 50 µg/mL (Hep3B; [8]): 87.8 ± 7.3%

SMILES: CC1CCc2cccc(OCCN3CCCCC3)c2N1 (stereo not drawn) [Compound 8b, 8-(2-(Piperidin-1-yl)ethoxy)-1,2,3,4-tetrahydro-2-methylquinoline]
Relative activity to untreated control [6]: +

IC50 [7]: 4 to 10 µg/mL (≈ 12.5 to 31.2 µM)
SMILES: CC1CCc2c(Br)cc(Br)c(O)c2N1 (single isomer, unassigned; (+)) [(+)-2b, 5,7-Dibromo-1,2,3,4-tetrahydro-2-methylquinolin-8-ol]
cytotoxic activity relative to CDDP ([4]; cell line KYSE150, preliminary results): more than 2 fold | cytotoxic activity relative to CDDP (Hep3B; cell line Hep3B, preliminary results): 1.5 fold | cytotoxic activity relative to CDDP ([5]; cell line HKESC-1, preliminary results): 1.5 fold | cytotoxic activity relative to CDDP (ESCC cell line HKESC-4; cell line HKESC-4, preliminary results): 1.5 fold | MTS50 (50% of MTS reduction ability by the chemical treated cell as compared with control) [3]: ~5 µg/mL

SMILES: CC(=O)Oc1cccc2c1N(C(C)=O)C(C)CC2 (stereo not drawn) [Compound 26b, 1-Acetyl-2-methyl-1,2,3,4-tetrahydroquinolin-8-yl acetate]
Relative activity to untreated control [6]: +

SMILES: COc1ccc(COc2cccc3ccc(C)nc23)cc1 [Compound 11a, 8-(4-methoxybenzyloxy)-2-methylquinoline]
viability at 50 µg/mL [1]: 52.7 ± 1.8% | Relative MTS Activity at 50 μg/mL Concentration, KYSE150 [4]: 0.797 ± 0.083 | viability at 50 µg/mL (Hep3B; [8]): 32 ± 1.7% | Relative MTS Activity at 50 μg/mL Concentration, HKESC-1 [5]: 0.817 ± 0.076 | Relative MTS Activity at 50 μg/mL Concentration, HKESC-4 (ESCC cell line HKESC-4): 0.488 ± 0.017

SMILES: CC1CCc2cccc(OCc3cccc(-c4ccccc4)c3)c2N1 (stereo not drawn) [Compound 14b, 8-(Biphenyl-3-ylmethoxy)-2-methyl-1,2,3,4-tetrahydroquinoline]
viability at 50 µg/mL [1]: 124 ± 6.6% | viability at 50 µg/mL (Hep3B; [8]): 51 ± 6.8%

SMILES: [NH2][Pt]([NH2])([Cl])[Cl] [CDDP, Cisplatin, reference compound]
Relative MTS Activity at 50 μg/mL Concentration, A549 [1]: 0.216 ± 0.075 | Relative MTS Activity at 50 μg/mL Concentration, KYSE150 [4]: 0.205 ± 0.032 | Relative MTS Activity at 50 μg/mL Concentration, Hep3B (Hep3B; [8]): 0.116 ± 0.031 | Relative MTS Activity at 50 μg/mL Concentration, HKESC-1 [5]: 0.135 ± 0.017 | Relative MTS Activity at 50 μg/mL Concentration, HKESC-4 (ESCC cell line HKESC-4): 0.158 ± 0.081 | effect induced by positive reference in Hep3B ([6]; 50 μg/ml): more than 95%

SMILES: COc1cccc(COc2cccc3c2NC(C)CC3)c1 (stereo not drawn) [Compound 12b, 8-(3-Methoxybenzyloxy)-1,2,3,4-tetrahydro-2-methylquinoline]
Relative MTS Activity at 50 μg/mL Concentration, KYSE150 [4]: 0.845 ± 0.010 | viability at 50 µg/mL (Hep3B; [8]): 72.6 ± 6.5% | Relative MTS Activity at 50 μg/mL Concentration, HKESC-1 [5]: 0.682 ± 0.001 | Relative MTS Activity at 50 μg/mL Concentration, HKESC-4 (ESCC cell line HKESC-4): 0.716 ± 0.022

SMILES: CC1CCc2cccc(OCc3ccc(F)cc3)c2N1 (stereo not drawn) [Compound 16b, 8-(4-Fluorobenzyloxy)-1,2,3,4-tetrahydro-2-methylquinoline]
viability at 50 µg/mL [1]: 90.8 ± 6.3% | viability at 50 µg/mL (Hep3B; [8]): 41.2 ± 1.7%

SMILES: CC(=O)Oc1cccc2c1NC(C)CC2 (stereo not drawn) [Compound 25b, 2-Methyl-1,2,3,4-tetrahydroquinolin-8-yl acetate]
Relative activity to untreated control [6]: +

SMILES: CC1CCc2cccc(OCc3ccc([N+](=O)[O-])cc3)c2N1 (stereo not drawn) [Compound 10b, 8-(4-Nitrobenzyloxy)-1,2,3,4-tetrahydro-2-methylquinoline]
viability at 50 µg/mL [1]: 166 ± 17.3% | Relative MTS Activity at 50 μg/mL Concentration, KYSE150 [4]: 1.097 ± 0.036 | viability at 50 µg/mL (Hep3B; [8]): 126 ± 3% | Relative MTS Activity at 50 μg/mL Concentration, HKESC-1 [5]: 1.337 ± 0.145 | Relative MTS Activity at 50 μg/mL Concentration, HKESC-4 (ESCC cell line HKESC-4): 1.056 ± 0.050

SMILES: COc1ccc(COc2cccc3c2NC(C)CC3)cc1 (stereo not drawn) [Compound 11b, 8-(4-Methoxybenzyloxy)-1,2,3,4-tetrahydro-2-methylquinoline]
viability at 50 µg/mL [1]: 75.9 ± 7.9% | Relative MTS Activity at 50 μg/mL Concentration, KYSE150 [4]: 0.764 ± 0.001 | viability at 50 µg/mL (Hep3B; [8]): 55.4 ± 11.4% | Relative MTS Activity at 50 μg/mL Concentration, HKESC-1 [5]: 0.917 ± 0.023 | Relative MTS Activity at 50 μg/mL Concentration, HKESC-4 (ESCC cell line HKESC-4): 0.777 ± 0.019

SMILES: CC1CCc2cccc(OCc3ccc(C#N)cc3)c2N1 (stereo not drawn) [Compound 13b, 4-((1,2,3,4-Tetrahydro-2-methylquinolin-8-yloxy)methyl)benzonitrile]
Relative MTS Activity at 50 μg/mL Concentration, KYSE150 [4]: 0.470 ± 0.087 | viability at 50 µg/mL (Hep3B; [8]): 84.2 ± 2.4% | Relative MTS Activity at 50 μg/mL Concentration, HKESC-1 [5]: 0.754 ± 0.017 | Relative MTS Activity at 50 μg/mL Concentration, HKESC-4 (ESCC cell line HKESC-4): 0.424 ± 0.062

SMILES: CC1CCc2cccc(OCc3cccc([N+](=O)[O-])c3)c2N1 (stereo not drawn) [Compound 9b, 8-(3-Nitrobenzyloxy)-1,2,3,4-tetrahydro-2-methylquinoline]
viability at 50 µg/mL [1]: 70.6 ± 18.4% | Relative MTS Activity at 50 μg/mL Concentration, KYSE150 [4]: 0.619 ± 0.025 | viability at 50 µg/mL (Hep3B; [8]): 68.8 ± 2.7% | Relative MTS Activity at 50 μg/mL Concentration, HKESC-1 [5]: 0.453 ± 0.012 | Relative MTS Activity at 50 μg/mL Concentration, HKESC-4 (ESCC cell line HKESC-4): 0.698 ± 0.096

SMILES: Cc1ccc2cccc(OCc3ccc(OC(F)(F)F)cc3)c2n1 [Compound 15a, 8-(4-(trifluoromethoxy)benzyloxy)-2-methylquinoline]
viability at 50 µg/mL [1]: 62.9 ± 8.1% | viability at 50 µg/mL (Hep3B; [8]): 77.7 ± 13%

SMILES: CC1CCc2cccc(OCc3ccc(OC(F)(F)F)cc3)c2N1 (stereo not drawn) [Compound 15b, 8-(4-(Trifluoromethoxy)benzyloxy)-1,2,3,4-tetrahydro-2-methylquinoline]
viability at 50 µg/mL [1]: 84 ± 2.9% | viability at 50 µg/mL (Hep3B; [8]): 76 ± 9%
